From paper PMC10000267, “ALA‐A2 Is a Novel Anticancer Peptide Inspired by Alpha‐Lactalbumin: A Discovery from a Computational Peptide Library, In Silico Anticancer Peptide Screening and In Vitro Experimental Validation” (Global Challenges, 2023)
Residues, ends and D or L forms follow the SMILES beside them.

Columns and labels:
[1] = tested on: HT29 colon adenocarcinoma cells; test: In vitro cancer cytotoxicity (MTT assay); type: cell-based, human; conditions: HT29, peptide 200 µM, 24 h
Description: (§1) All cell lines were obtained from the American Type Culture Collection (ATCC, Manassas, VA, USA). The A549 lung adenocarcinoma (ATCC CCL‐185TM), MDA‐MB‐231 triple‐negative breast adenocarcinoma (ATCC HTB‐26TM), and SH‐SY5Y neuroblastoma (ATCC CRL‐2266TM) cell lines were cultured in Dulbecco's Modified Eagle's Medium (DMEM)‐high glucose (Gibco, Thermo Fisher Scientific, MA, USA). HT29 colon adenocarcinoma (ATCC HTB‐38) cell lines were maintained in DMEM/Nutrient Mixture F‐12 (Gibco). K562 chronic myeloid leukemia (ATCC CRL‐3344) were grown in Roswell Park Memorial Institute Medium 1640 (Gibco). The cells were cultured in medium supplemented with 10% fetal bovine serum (Gibco) and 1× penicillin/streptomycin (Gibco) and incubated in a 5% CO2 incubator with saturated humidity.
(§2) The protocol previously described by Chiangjong et al. and Baindara et al.^[ [5], [29] ^] was modified for use in determining the cytotoxicity of peptides on the various cancer types. Adherent cells were seeded at 1 × 10^4 cells/well into a 96‐well plate 24 h prior to replacing the media containing the peptide of interest. Suspended cells were seeded at 1 × 10^4 cells/well in the media containing the peptide of interest. Five human cell lines, including lung cancer (A549), colon cancer (HT29), breast cancer (MDA‐MB‐231), neuroblastoma (SH‐SY5Y), and leukemia (K562) cells, were treated with the culture media containing the peptides at 200 µM for 24 h. Cell viability was then determined using Cell Proliferation Kit I, MTT (Roche Diagnostics GmbH, Mannheim, Germany): MTT labeling reagent (10 µL) was added to each well and incubated at 37 °C in a 5% CO2 atmosphere for 4 h. After incubation, 100 µL solubilizing solution was added to each well and incubated at 37 °C in 5% CO2 overnight. The absorbance at 570 nm (A 570) was measured for each well. The percentage of cell viability was calculated as: (1) % Cell Viability=[A570 of treated cells − A570 of media/A570 of untreated cells−A570 of media] × 100
(§3) To evaluate dose‐dependency, ≈1 × 10^4 cells/well were cultured in media containing ALA‐A2 at 0, 6.25, 12.5, 25, 50, 100, 200, and 400 µM in a 96‐well plate for 24 h. Cell viability was determined by the MTT assay, as above.

[2] = tested on: A549 lung adenocarcinoma cells; test: In vitro cancer cytotoxicity (MTT assay); type: cell-based, human; conditions: A549, peptide 200 µM, 24 h
Description: as §1, §2, §3

[3] = tested on: SH‐SY5Y neuroblastoma cells; test: In vitro cancer cytotoxicity (MTT assay); type: cell-based, human; conditions: peptide 200 µM, 24 h
Description: as §1, §2

[4] = tested on: K562 leukemia cells; test: In vitro cancer cytotoxicity (MTT assay); type: cell-based, human; conditions: K562, peptide 200 µM, 24 h
Description: as §1, §2

[5] = tested on: MDA‐MB‐231 breast cancer cells; test: In vitro cancer cytotoxicity (MTT assay); type: cell-based, human; conditions: MDA‐MB‐231, peptide 200 µM, 24 h
Description: as §1, §2

[6] = tested on: Human red blood cells; test: Ex vivo hemolysis assay (RBC lysis assay); type: cell-based; conditions: peptide 200 µM, 1 h; for percent hemolysis: ≈0.8% v/v human RBC suspension in 0.9% normal saline, room temperature, absorbance 415 nm, relative to 1% Triton X‐100, blood of three healthy individuals, mean ± SD
Description: The hemolysis assay was as described previously.^[ [30] ^] After informed consent, peripheral blood (3 mL) was collected from three healthy individuals into heparin tubes (BD Biosciences, NJ, USA). The specimen was centrifuged at 2000 × g for 5 min at room temperature, and the plasma was discarded. The RBCs were washed twice with PBS and then resuspended in 0.9% normal saline solution at a volume equivalent to that of the original plasma. Approximately 0.8% v/v RBC suspension was incubated with the peptides at 200 µM (100 µL final volume) in a U‐bottom 96‐well plate at room temperature for 1 h with agitation. 1% v/v Triton X‐100 was applied as a positive control. The untreated condition served as the blank control. After 1 h incubation, the supernatants were collected by centrifuging at 2000 × g for 5 min at room temperature. The absorbance of hemoglobin in the supernatant was measured at 415 nm. The hemolysis percentage was calculated as follows: (2) % Hemolysis = [sample absorbance−blank control/positive control−blank control] × 100

[7] = tested on: A549 lung cancer cells; test: Confocal microscopy: cell internalization and membrane integrity (PI); type: cell-based, human; conditions: A549, peptide 200 µM 24 h, Triton X‐100 0.5% v/v 10 min, PI staining
Description: All cells were then incubated with PI (1:2000) and Hoechst 33342 (1:5000) in the culture medium at 37 °C in 5% CO2 for 15 min. The cells were washed with PBS twice before being fixed with 4% paraformaldehyde (PFA) in PBS. The fixed cells were washed twice with PBS and mounted in 20% glycerol in PBS. […] Thereafter, the cells were stained with PI for 15 min at room temperature, washed with PBS, and then mounted with 20% glycerol in PBS. Internalization was visualized by confocal fluorescence microscopy (Nikon Instruments, Inc., Melville, NY, USA).

Molecule: CC[C@H](C)[C@H](NC(=O)CNC(=O)[C@@H](NC(=O)[C@H](CC(C)C)NC(=O)[C@H](Cc1ccccc1)NC(=O)[C@H](CC(C)C)NC(=O)[C@@H]1CCCN1C(=O)[C@@H](NC(=O)[C@H](Cc1ccccc1)NC(=O)[C@H](Cc1ccccc1)NC(=O)[C@@H](N)CCCNC(=N)N)C(C)C)C(C)C)C(=O)N[C@@H](CC(C)C)C(=O)N[C@@H](Cc1ccccc1)C(=O)N1CCC[C@H]1C(=O)N[C@@H](C)C(=O)N[C@H](C(=O)N[C@@H](CC(C)C)C(=O)N[C@@H](C)C(=O)N[C@@H](CCCCN)C(=O)N[C@@H](CCC(N)=O)C(=O)N[C@@H](Cc1ccccc1)C(=O)N[C@H](C(=O)N[C@@H](CCCCN)C(=O)O)[C@@H](C)O)[C@@H](C)CC [ALA‐A1] (H-RFFVPLFLVGILFPAILAKQFTK-OH)
- anticancer effect (in words) [1]: did not exhibit a substantial anticancer effect
- anticancer effect (in words) [2]: did not exhibit a substantial anticancer effect
- anticancer effect (in words) [3]: did not exhibit a substantial anticancer effect
- anticancer effect (in words) [4]: did not exhibit a substantial anticancer effect
- anticancer effect (in words) [5]: did not exhibit a substantial anticancer effect
- percent hemolysis [6]: 5.6% ± 0.6%

Molecule: CC[C@H](C)[C@H](NC(=O)CNC(=O)[C@@H](NC(=O)[C@H](CC(C)C)NC(=O)[C@H](Cc1ccccc1)NC(=O)[C@H](CC(C)C)NC(=O)[C@@H]1CCCN1C(=O)[C@@H](NC(=O)[C@H](Cc1ccccc1)NC(=O)[C@H](Cc1ccccc1)NC(=O)[C@@H](N)CCCNC(=N)N)C(C)C)C(C)C)C(=O)N[C@@H](CC(C)C)C(=O)N[C@@H](Cc1ccccc1)C(=O)N1CCC[C@H]1C(=O)N[C@@H](C)C(=O)N[C@H](C(=O)N[C@@H](CC(C)C)C(=O)N[C@@H](C)C(=O)N[C@@H](CCCCN)C(=O)N[C@@H](CCC(N)=O)C(=O)N[C@@H](Cc1ccccc1)C(=O)N[C@H](C(=O)N[C@@H](CCCCN)C(=O)N[C@@H](CS)C(=O)O)[C@@H](C)O)[C@@H](C)CC [ALA‐A3] (H-RFFVPLFLVGILFPAILAKQFTKC-OH)
- anticancer effect (in words) [1]: did not exhibit a substantial anticancer effect
- anticancer effect (in words) [2]: did not exhibit a substantial anticancer effect
- anticancer effect (in words) [3]: did not exhibit a substantial anticancer effect
- anticancer effect (in words) [4]: did not exhibit a substantial anticancer effect
- anticancer effect (in words) [5]: did not exhibit a substantial anticancer effect
- percent hemolysis [6]: 1.3% ± 1.2%

Molecule: CC[C@H](C)[C@H](NC(=O)[C@H](CCC(N)=O)NC(=O)[C@H](Cc1ccccc1)NC(=O)[C@@H](N)CC(C)C)C(=O)N[C@@H](CO)C(=O)N[C@@H](CC(N)=O)C(=O)N[C@@H](CCCCN)C(=O)N[C@@H](CC(C)C)C(=O)N[C@@H](Cc1c[nH]c2ccccc12)C(=O)N[C@@H](CS)C(=O)N[C@@H](CCCCN)C(=O)N[C@@H](CO)C(=O)N[C@@H](CO)C(=O)N[C@@H](CCC(N)=O)C(=O)N[C@H](C(=O)N1CCC[C@H]1C(=O)N[C@@H](CCC(N)=O)C(=O)N[C@@H](CO)C(=O)N[C@@H](CCCNC(=N)N)C(=O)N[C@@H](CC(N)=O)C(=O)O)C(C)C [ALA‐A4] (H-LFQISNKLWCKSSQVPQSRN-OH)
- anticancer effect (in words) [1]: did not exhibit a substantial anticancer effect
- anticancer effect (in words) [2]: did not exhibit a substantial anticancer effect
- anticancer effect (in words) [3]: did not exhibit a substantial anticancer effect
- anticancer effect (in words) [4]: did not exhibit a substantial anticancer effect
- anticancer effect (in words) [5]: did not exhibit a substantial anticancer effect
- percent hemolysis [6]: 0.7% ± 0.6%

Molecule: CC[C@H](C)[C@H](NC(=O)[C@H](CO)NC(=O)[C@@H]1CCCN1C(=O)[C@H](C)NC(=O)CNC(=O)[C@H](CC(C)C)NC(=O)[C@H](CCCCN)NC(=O)[C@H](CCCCN)NC(=O)[C@H](CCSC)NC(=O)[C@H](CCCNC(=N)N)NC(=O)[C@H](Cc1c[nH]c2ccccc12)NC(=O)[C@H](CCC(N)=O)NC(=O)[C@H](Cc1c[nH]c2ccccc12)NC(=O)[C@H](CCCNC(=N)N)NC(=O)[C@H](CCCNC(=N)N)NC(=O)[C@H](CS)NC(=O)[C@H](CCCCN)NC(=O)[C@@H](N)Cc1ccccc1)C(=O)N[C@H](C(=O)N[C@@H](CS)C(=O)N[C@H](C(=O)N[C@@H](CCCNC(=N)N)C(=O)O)C(C)C)[C@@H](C)O [BMP‐S6, reference compound]
- anticancer effect (in words) [4]: exhibited cancer cytotoxicity

Molecule: Triton X‐100 [reference compound]
- membrane integrity / propidium iodide internalization (in words) [7]: is internalized
- hemolytic effect (in words) ([6]; human RBCs, Triton X‐100 1% v/v): completely lysed
